Data: patent publication US12662504B2, “High-solubility rebaudioside D complex” (SUNTORY HOLDINGS LIMITED, priority 2019, dated 2026)
Where two headings read alike, the source gives them in different places. Blank lines part the entries; values can stand above or below the compound they belong to. Peptide text beside a SMILES is read from it.

Legend:
[1] = Evaluation of melting/dissolution (Example A): melting of auxiliary raw material and dissolution of Reb. D in the melt
Protocol: The meltability of a raw material to be combined with Reb. D (hereinafter also referred to as “the auxiliary raw material”) and the solubility of Reb. D were evaluated, and the auxiliary raw material with which the complex of the present invention can be obtained was examined. As the auxiliary raw material, raw materials described in the table below were selected from food additives that can be added to beverages. The raw materials used for forming the complex are as follows: Reb. D formulation (purity: 95% (w/w), manufactured by Jining Renewal and Joint International); D-allulose (purity: 99%+), arabinose (purity: 98%+), fructose (purity: 99%+), glucose (purity: 99%+), maltose monohydrate (purity: 95%+), mannitol (purity: 99%+), mannose (purity: 98%+), rhamnose (purity: 98%+), ribose (purity: 98%+), sucrose (purity: 99%+), xylitol (purity: 98%+) and xylose (purity: 98%+), trehalose dihydrate (purity: 98%+), sodium pantothenate (purity: 98%+) (each manufactured by NACALAI TESQUE, INC.); and erythritol (purity: 98% (w/w), manufactured by Mitsubishi-Chemical Foods Corporation). Also in the subsequent working examples, the raw materials described above were used unless otherwise stated.
The auxiliary raw material described in Table 1 was mixed with 100 mg of Reb. D formulation (purity: 95% (w/w)) in a heat-resistant vial, the temperature was elevated to the melting point of the auxiliary raw material or higher, and it was confirmed whether or not the auxiliary raw material was melted. After melting of the auxiliary raw material and dissolution of the Reb. D formulation were visually confirmed, the mixture was rapidly cooled in ice and stored at 10° C. The weight of the auxiliary raw material was adjusted based on the amount that enables dissolution of Reb. D. The weight of D-allulose (another name: D-psicose) was 2,000 mg, the weight of L-glutamine was 1,000 mg, the weight of vitamin D3 was 1,144 mg, and the weight of an auxiliary raw material other than those was 4,000 mg. The case where it was recognized that the auxiliary raw material was melted and that Reb. D was dissolved (including the case where dissolution was visually recognized more when compared to the point of adding (complete dissolution is not required)) was evaluated as “O”, and the case where it was not recognized that the auxiliary raw material was melted even at a temperature equal to or higher than the melting point of the auxiliary raw material, or the case where it was not recognized that Reb. D was dissolved though the auxiliary raw material was successfully melted (after the addition, change in outer appearance was not visually recognized) was evaluated as “X”.

[2] = test system: panelists trained about sensory attributes of sweeteners; experiment: Evaluation of flavor by trained panelists (Example Q); format: in vivo; conditions: 300 mg/L in terms of Reb. A or Reb. D; sucrose 9 SEV; 5 panelists; 0 to 6 points, sucrose control = 3
Protocol: In order to confirm effects of the three-component complex of erythritol/Reb. D/fructose, evaluation of flavor was made. Reb. A and Reb. D were also used, and sucrose was used as a control. Each of a two-component complex and a three-component complex was prepared as a solid according to the method of the working example so that about 3.6% of Reb. D was contained. Each of the complexes or Reb. A was subjected to adjustment by adding water thereto in a manner such that the amount in terms of Reb. A or Reb. D became 300 mg/L. The concentration of the sucrose solution was adjusted to be 9 SEV (sucrose equivalent value). Evaluation of taste quality was made by panelists trained about sensory attributes of sweeteners (5 members). The respective items of evaluation of flavor (on-set speed, lingering sweet aftertaste, bitterness intensity, lingering bitter aftertaste and comprehensive evaluation) were scored in a range of 0 to 6 points. As a reference, sucrose alone was used as a control (3 points). 6 points means high on-set speed of sweetness, short lingering sweet aftertaste, low bitterness intensity, short lingering bitter aftertaste and satisfactory overall evaluation.

[3] = times the sweetness of sugar / sucrose; cited from earlier work
[4] = format: physicochemical
Excerpt: In an embodiment of the present invention, the content of Reb. D in the complex is an amount equal to or less than the saturation solubility relative to the at least one compound selected from the carbohydrates and the water-soluble vitamins and the salts thereof. The saturation solubility means an amount (mg) with which Reb. D is no longer dissolved in a melt of 1 g of the at least one compound selected from the carbohydrates and the water-soluble vitamins and the salts thereof. The saturation solubility varies depending on the type of the compound and the temperature of the melt, but can be easily and accurately confirmed by actually forming a melt and dissolving Reb. D therein. For example, when forming a melt by using erythritol, 112 mg of Reb. D is dissolved in 1 g of erythritol at 190° C. (i.e., 112 mg/g).

Melting/dissolution [1]: ◯
Structure (SMILES): O=C[C@H](O)[C@H](O)[C@H](O)CO [Ribose]

Melting/dissolution [1]: ◯
Structure (SMILES): CC(C)(CO)[C@@H](O)C(=O)NCCC(=O)[O-].[Na+] [Sodium pantothenate]

Melting/dissolution [1]: ◯
Structure (SMILES): OC[C@@H](O)[C@@H](O)[C@H](O)[C@H](O)CO [Mannitol]

Melting/dissolution [1]: ◯
Structure (SMILES): OC[C@@H](O)[C@H](O)[C@@H](O)CO [Xylitol]

Melting/dissolution [1]: ◯
Structure (SMILES): O=C[C@H](O)[C@@H](O)[C@H](O)CO [Xylose]

Melting/dissolution [1]: ◯
Structure (SMILES): OC[C@H]1O[C@H](O[C@H]2[C@H](O)[C@@H](O)C(O)O[C@@H]2CO)[C@H](O)[C@@H](O)[C@@H]1O (mixture of isomers) [Maltose]

Melting/dissolution [1]: ◯
Structure (SMILES): OC[C@H]1O[C@@](CO)(O[C@H]2O[C@H](CO)[C@@H](O)[C@H](O)[C@H]2O)[C@@H](O)[C@@H]1O [Sucrose]
Bitterness intensity [2]: 3.00 points | Comprehensive evaluation [2]: 3.00 points | Lingering bitter aftertaste [2]: 3.00 points | Lingering sweet aftertaste [2]: 3.00 points | On-set speed [2]: 3.00 points

saturation solubility of Reb. D in erythritol melt [4]: 112 mg/g
Structure (SMILES): C=C1C[C@@]23CC[C@H]4[C@@](C)(CCC[C@@]4(C)C(=O)O[C@@H]4OC(CO)[C@@H](O)C(O)C4O[C@@H]4OC(CO)[C@@H](O)C(O)C4O)[C@@H]2CC[C@]1(O[C@@H]1OC(CO)[C@@H](O)C(O[C@@H]2OC(CO)[C@@H](O)C(O)C2O)C1O[C@@H]1OC(CO)[C@@H](O)C(O)C1O)C3 (some centres unmarked) [Reb. D, rebaudioside D]
Bitterness intensity [2]: 2.10 points | Comprehensive evaluation [2]: 2.20 points | Lingering bitter aftertaste [2]: 2.40 points | Lingering sweet aftertaste [2]: 2.50 points | On-set speed [2]: 2.40 points

Melting/dissolution [1]: ◯
Structure (SMILES): C[C@H](O)[C@H](O)[C@@H](O)[C@@H](O)C=O [Rhamnose]

More lines, now with the values behind:

Structure (SMILES): OC[C@@H](O)[C@@H](O[C@H]1O[C@H](CO)[C@@H](O)[C@H](O)[C@H]1O)[C@H](O)[C@@H](O)CO [Maltitol]
Melting/dissolution [1]: ◯

Structure (SMILES): O=C[C@@H](O)[C@H](O)[C@H](O)CO [Arabinose]
Melting/dissolution [1]: ◯

Structure (SMILES): NC(=O)CC[C@H](N)C(=O)O [L-glutamine]
Melting/dissolution [1]: ◯

Structure (SMILES): OC[C@@H](O)[C@@H](O)CO [Erythritol]
Melting/dissolution [1]: ◯

Structure (SMILES): C=C1C[C@@]23CC[C@H]4[C@@](C)(CCC[C@@]4(C)C(=O)O[C@@H]4O[C@H](CO)[C@@H](O)[C@H](O)[C@H]4O)[C@@H]2CC[C@]1(O[C@@H]1O[C@H](CO)[C@@H](O)[C@H](O[C@@H]2O[C@H](CO)[C@@H](O)[C@H](O)[C@H]2O)[C@H]1O[C@@H]1O[C@H](CO)[C@@H](O)[C@H](O)[C@H]1O)C3 [Reb. A, rebaudioside A]
Bitterness intensity [2]: 2.10 points | Comprehensive evaluation [2]: 1.70 points | Lingering bitter aftertaste [2]: 1.70 points | Lingering sweet aftertaste [2]: 1.70 points | On-set speed [2]: 2.60 points

Structure (SMILES): C=C1CC[C@H](O)C/C1=C/C=C1\CCC[C@]2(C)[C@@H]([C@H](C)CCCC(C)C)CC[C@@H]12 [Vitamin D3]
Melting/dissolution ([1]; auxiliary raw material mixed with 100 mg of Reb. D formulation, heated to melting point or higher, visual): ◯

Structure (SMILES): COC(=O)[C@H](Cc1ccccc1)NC(=O)[C@@H](N)CC(=O)O [aspartame] (H-Asp-Phe-OMe)
sweetness relative to sugar (sucrose) [3]: about 180 times

Structure (SMILES): O=C(O)CC(O)C(=O)O (racemic) [DL-malic acid]
Melting/dissolution [1]: ◯

Structure (SMILES): CC1=CC(=O)NS(=O)(=O)O1 [acesulfame potassium]
sweetness relative to sugar (sucrose) [3]: about 200 times

Structure (SMILES): O=C(CO)[C@H](O)[C@H](O)[C@H](O)CO [D-allulose]
Melting/dissolution [1]: ◯

Structure (SMILES): O=C(CO)[C@@H](O)[C@H](O)[C@H](O)CO [Fructose]
Melting/dissolution [1]: ◯

Structure (SMILES): OC[C@H]1O[C@H](O[C@]2(CCl)O[C@H](CCl)[C@@H](O)[C@@H]2O)[C@H](O)[C@@H](O)[C@H]1Cl [sucralose]
sweetness relative to sugar (sucrose) [3]: about 600 times
